Measurements reported in the SangsterLogP compilation.
Values belong to the molecule of their own block, whether it stands above or below them.

- logD (pH 7.3): 6
Compound: O=C(Nc1ccccc1)[C@H]1CC(=O)N(Cc2ccccc2)/C(=N/c2ccc(F)cc2)S1

- logD (pH 6.5): 4.28
Compound: CC(C)(C)S(=O)(=O)/C(C#N)=C/Nc1ccc(OC(F)(F)F)cc1

- logD (pH 6.5): 4.75
Compound: Cc1ccc(S(=O)(=O)/N=C2\SC(=CN(C)C)C(=O)N2C2CCCCC2)cc1

- logD (pH 10.0): 3.95
Compound: CC[C@@H](SC1=Nc2ccccc2C2=N[C@@H](Cc3ccccc3)C(=O)N12)C(=O)N1CCOCC1

- logD (pH 5.0): 3.75
Compound: COc1cc([C@H]2NC(=O)NC(C)=C2C(=O)OC(C)C)ccc1OC(F)F

- logD (pH 10.5): 4.69
Compound: CN(C)/C=C/C(=O)c1ccc(C#Cc2ccccc2)cc1

- logD (pH 5.0): 1.87
Compound: CCOC(=O)c1ccc(C#N)cc1

- logD (pH 5.0): 4.48
Compound: CCCS(=O)(=O)c1c(S(=O)(=O)CCC)c2c3ccccc3ccn2c1C(=O)c1ccccc1

- logD (pH 5.0): 3.62
Compound: CCCCN1C(=O)c2ccc(C(=O)OCC(=O)N[C@H](C)C(C)C)cc2C1=O

- logD (pH 5.0): 4.63
Compound: COc1ccc(Oc2c(C(F)(F)F)oc3cc(OC(=O)N4CCOCC4)ccc3c2=O)cc1

- logD (pH 5.0): 3.96
Compound: O=C1C[C@@H](c2c(F)cccc2Cl)c2cc3c(cc2N1)OCCO3

- logD (pH 5.0): 4.27
Compound: COc1cc(/C=C/C(=O)N[C@H]2CCCc3ccccc32)cc(OC)c1OC

- logD (pH 10.5): 4.93
Compound: CCOc1ccc(N2CN=c3s/c(=C\c4cc(OC)c(OC)cc4[N+](=O)[O-])c(=O)n3C2)cc1

- logD (pH 2.0): 4.37
Compound: Cc1ccccc1O[C@@H]1C(=O)N(Cc2ccc3c(c2)OCO3)[C@H]1c1ccc2c(c1)OCO2

- logD (pH 5.0): 5.6
Compound: O=C1[C@@H](c2cccc(Br)c2)N(CCC2=CCCCC2)C(=O)CN1C1CCCCC1

- logD (pH 6.5): 5.07
Compound: CC/C(=N\N=C1/S[C@@H](C)C(=O)N1Cc1ccco1)c1ccccc1

- logD (pH 7.3): 6.01
Compound: CC1(C)[C@@]2(C)CC[C@]1(C(=O)Nc1ccccc1C(F)(F)F)c1nc3ccccc3nc12

- logD (pH 10.0): 4.99
Compound: Clc1cccc(Cl)c1Cn1ccc(Nc2nnc(Cc3ccc(-n4cnnn4)cc3)s2)n1

- logD (pH 5.0): 5.45
Compound: Cc1cc(Cl)ccc1O[C@@H](C)C(=O)NC1CCCCCC1

- logD (pH 6.5): 3.24
Compound: CCn1c(NC[C@@H](O)c2ccccc2)nc2c1c(=O)n(C)c(=O)n2C

- logD (pH 6.5): 4.18
Compound: O=C([C@H]1CCCO1)N1CCN(C(=S)Nc2ccc(Oc3ccccc3)cc2)CC1

- logD (pH 2.0): 4.03
Compound: O=S(=O)(/C=C/C=C/Sc1ccccc1)c1ccccc1

- logD (pH 5.0): 6.66
Compound: CC(C)CN1C(=O)/C(=C/[C@@H]2CC=CCC2)SC1=S

- logD (pH 5.0): 5.36
Compound: CCOCCOC(=O)c1ccc(NC(=O)COc2ccc(C)cc2Br)cc1

- logD (pH 10.0): 4.73
Compound: CCOC(=O)C1=NN[C@@]2(c3cccc([N+](=O)[O-])c3)C(=O)N(c3cccc(C(F)(F)F)c3)C(=O)[C@H]12

- logD (pH 5.0): 4.46
Compound: COc1cc(C#N)ccc1OC(=O)/C=C/c1cccc(F)c1

- logD (pH 5.0): 4.91
Compound: CS(=O)(=O)N(CC(=O)N1CCc2ccccc2C1)c1ccc(OCc2ccccc2)cc1

- logD (pH 10.0): 5.8
Compound: CC/N=C1\S/C(=C\c2cn(CC(=O)Nc3cccc(C)c3)c3ccccc23)C(=O)N1CC

- logD (pH 5.0): 5.05
Compound: CCOC(=O)c1c(NC(=O)[C@@H]2C[C@H]3CC[C@@H]2C3)sc(C(=O)N(CC)CC)c1C

- logD (pH 5.0): 3.62
Compound: O=C(N[C@H](Sc1ncccn1)C(=O)c1ccccc1)c1ccccc1

- logD (pH 10.5): 3.1
Compound: Cc1cc2c(c(=O)o1)[C@@H](c1cccc(F)c1F)C(C#N)=C(N)O2

- logD (pH 5.0): 4.48
Compound: CCOC(=O)C1=C(C)OC(N)=C(C#N)[C@H]1c1cccc(I)c1

- logD (pH 2.0): 3.76
Compound: COc1ccc([C@@H](C(=O)Nc2ccc3c(c2)OCCO3)N(C)C(=O)Cc2c[nH]c3ccccc23)cc1

- logD (pH 5.0): 5.77
Compound: COc1ccc([C@H]2CC(=O)C3=C(C2)Nc2ccc4ccccc4c2[C@@H]3c2ccc3c(c2)OCO3)cc1

- logD (pH 5.0): 3.08
Compound: COc1ccccc1/C=N/n1c(C)cc(C)c(C#N)c1=O

- logD (pH 10.5): 3.73
Compound: C[C@@H](c1nc2c3cnn(-c4ccccc4)c3ncn2n1)n1cc([N+](=O)[O-])cn1

- logD (pH 6.0): 3.37
Compound: CC1=C(C(=O)N2CCCCC2)C(c2cccs2)C2=C(O)CCCC2=N1 (centres undefined)

- logD (pH 10.5): 5.02
Compound: CC(C)=CCCC1=NN(C=O)[C@@](C)(CCC=C(C)C)C1

- logD (pH 5.0): 4.43
Compound: O=C(Cc1coc2cc3c(cc12)CCC3)O[C@H]1CCCCC1=O

- logD (pH 2.0): 3.56
Compound: COC(=O)C(=O)C1=C(c2ccc(Cl)cc2)NC(=O)N[C@@H]1c1ccc(Cl)cc1

- logD (pH 6.5): 6.14
Compound: Cc1ccc(N2CC(=O)N(/N=C/c3cn(-c4ccccc4)nc3-c3ccc(Cl)cc3)CC2=O)cc1

- logD (pH 10.5): 6.04
Compound: C=CCn1c(SCC(=O)N2C[C@@]3(C)C[C@@H]2CC(C)(C)C3)nc2sc(CC)cc2c1=O

- logD (pH 7.0): 5.28
Compound: Cn1c([C@@H](C#N)C(=O)[C@@H](Sc2ccccc2)c2ccccc2)nc2ccccc21

- logD (pH 5.0): 4.5
Compound: O=C(Nc1ccc(C(F)(F)F)cc1)[C@H]1CCc2ccccc2O1

- logD (pH 5.0): 4.52
Compound: CCOC(=O)N1CCN(C(=O)c2noc3c2C[C@@H](C(C)(C)C)CC3)CC1

- logD (pH 5.0): 4.34
Compound: Cc1cc(Cl)ccc1NC(=S)NCCc1c[nH]c2ccccc12

- logD (pH 10.5): 4.64
Compound: N#CC1=C(N)OC2=NN=C(c3cccs3)[C@@H]2[C@@H]1C1CCCCC1

- logD (pH 5.0): 4.73
Compound: CC(=O)c1c(C)[nH]c(C(=O)COC(=O)c2ccccc2NC(=O)c2ccco2)c1C

- logD (pH 7.3): 3.65
Compound: O=C1C[C@@H](n2nc(-c3ccccc3)n(-c3ccccc3)c2=S)[C@@H]2CO[C@H]1O2
